Assay [1] concerns the target T1, binding between IKKβ and full-length Regnase-1 (FL_Reg1) (Homo sapiens, UniProt Q5D1E8).
T1 construct: made in house; host or cells: Expi293 cells
T1 sequence (Q5D1E8 1-599): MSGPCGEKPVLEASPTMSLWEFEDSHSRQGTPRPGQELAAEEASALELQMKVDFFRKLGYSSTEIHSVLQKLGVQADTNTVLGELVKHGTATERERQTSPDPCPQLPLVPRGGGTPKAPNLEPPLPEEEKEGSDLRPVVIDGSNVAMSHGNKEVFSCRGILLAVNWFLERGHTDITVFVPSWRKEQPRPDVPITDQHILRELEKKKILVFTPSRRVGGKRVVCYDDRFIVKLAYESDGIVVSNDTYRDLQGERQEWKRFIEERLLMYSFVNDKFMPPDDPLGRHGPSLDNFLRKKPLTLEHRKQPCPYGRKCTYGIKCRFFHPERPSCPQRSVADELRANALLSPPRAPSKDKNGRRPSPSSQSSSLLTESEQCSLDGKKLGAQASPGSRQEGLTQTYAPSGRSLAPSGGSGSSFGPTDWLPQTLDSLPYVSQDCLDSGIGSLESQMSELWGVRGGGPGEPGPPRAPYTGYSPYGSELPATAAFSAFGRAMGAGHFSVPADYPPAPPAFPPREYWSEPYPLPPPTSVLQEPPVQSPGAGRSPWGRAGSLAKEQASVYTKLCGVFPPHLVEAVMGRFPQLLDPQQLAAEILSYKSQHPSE
The assay can be described thus: Inhibition of kinase-Regnase-1 binding by the compounds (AlphaScreen), IKKβ. Summed up: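 Read-out was AlphaScreen luminescence using anti-FLAG acceptor and glutathione donor beads, with Regnase-1 alone set as 100% and DMSO as 0% inhibition to fit IC50. Compound was premixed with 2.5 nM full-length human Regnase-1 (Expi293-expressed, FLAG/BirA-tagged). 2.5 nM TBK1 or IKKβ was then added for 2 h at room temperature.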
Background: Bead proximity is the source of the signal in Alpha formats.

Assay [2] deals with T2, ΔCTD_Reg1 (amino acids 1 to 546 of human Regnase-1) phosphorylation by IKKβ (Homo sapiens, UniProt Q5D1E8).
T2 construct: made in house; host or cells: Expi293 cells
T2 sequence (Q5D1E8 1-546): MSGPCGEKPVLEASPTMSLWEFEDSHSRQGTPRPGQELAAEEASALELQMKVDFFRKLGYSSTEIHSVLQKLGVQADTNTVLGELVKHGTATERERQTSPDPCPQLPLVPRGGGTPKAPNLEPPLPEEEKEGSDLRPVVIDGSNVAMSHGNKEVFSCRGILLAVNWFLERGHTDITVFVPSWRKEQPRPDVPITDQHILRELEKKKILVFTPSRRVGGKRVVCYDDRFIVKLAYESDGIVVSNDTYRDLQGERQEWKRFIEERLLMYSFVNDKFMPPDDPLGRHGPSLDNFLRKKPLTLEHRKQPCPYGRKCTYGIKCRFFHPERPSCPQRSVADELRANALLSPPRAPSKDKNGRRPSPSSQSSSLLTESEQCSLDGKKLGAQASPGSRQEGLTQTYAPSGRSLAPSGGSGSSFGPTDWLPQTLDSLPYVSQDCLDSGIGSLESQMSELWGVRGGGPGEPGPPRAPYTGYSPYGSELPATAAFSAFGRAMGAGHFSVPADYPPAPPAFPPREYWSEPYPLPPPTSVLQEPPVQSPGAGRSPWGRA
The assay can be described thus: Regnase-1 phosphorylation inhibition by compounds (AlphaScreen), IKKβ, CTD-deficient Regnase-1. It is filed as biochemical. The procedure:
Among the full-length human Regnase-1 sequence, the 1st to 546th amino acid sequence was prepared and made into a construct having a FLAG tag on the N-terminal side and a biotin ligase BirA recognition sequence on the C-terminal side (herein, a Regnase-1 lacking the C-terminal domain of Regnase-1 (amino acids 547 to 599 in the case of SEQ ID NO: 2) is referred to as “ΔCTD_Reg1”. “ΔCTD_Reg1” is different from “Regnase-1ΔCTD”, which is a C-terminal domain deletion variant resulting from a frameshift mutation caused by a 1 bp deletion at codon 517, as prepared in Example 13). In addition, the sequence from amino acids 301 to 599 of the full-length human Regnase-1 sequence was designated as C-terminal Regnase-1, and a construct having a FLAG tag on the N-terminal side and a recognition sequence for biotin ligase BirA on the C-terminal side was prepared (Reg1_301-599). The above-mentioned Regnase-1 was expressed in mammalian Expi293 cells, purified with FLAG M2 agarose, and isolated by gel filtration chromatography. When biotinylation was required, methods of nonpatent documents (BMC biotechnology, 2008,8,41; and Protein Science, 1999,8,921-929) were used.
Using Kinase assay buffer III (manufactured by SignalChem) supplemented with 2 mM DTT, 100 μM sodium vanadate, and 2 mM manganese chloride, kinase (IKKβ (manufactured by SignalChem) or TBK1 (manufactured by SignalChem)) and Regnase-1 were reacted in the presence of 10 μM ATP at room temperature for 2 hours to perform a phosphorylation reaction.
Phosphorylated Regnase-1 was detected by the AlphaScreen system. After each of the above-mentioned phosphorylated Regnase-1 antibodies was added and reacted at room temperature for one hour, anti-FLAG AlphaLISA Acceptor Beads (manufactured by PerkinElmer) and Protein A AlphaScreen Donor Beads (manufactured by PerkinElmer) were added, and EnVision (manufactured by PerkinElmer) was used to measure the excited luminescence. As a result, phosphorylated Regnase-1 produced by the phosphorylation reaction by kinase was specifically detected, and signals were confirmed to be enhanced in a manner dependent on Regnase-1 and kinase concentrations (FIG. 24).
After mixing 2 nM of the above-mentioned Regnase-1 and the compound, phosphorylated Regnase-1 produced by the phosphorylation reaction was detected by the AlphaScreen system. As the results, the inhibition rate was calculated from the signals obtained when adding the compound at each concentration, by defining the signal obtained with Regnase-1 alone to be 100% inhibition rate, and the signal obtained when the same amount of solvent (DMSO) is added in place of the compound as 0% inhibition rate. The 50% inhibition concentration (μM) was calculated from the obtained dose response curve (Table 11).

Setting [3] is: Table 12, 2.5 nM Regnase-1, 2.5 nM IKKβ, AlphaScreen, read-out: 50% inhibition concentration, binding between Regnase-1 and IKKβ, FL_Reg1.
Setting [4] is: Table 11, 2 nM Regnase-1, AlphaScreen, read-out: 50% inhibition concentration, Regnase-1 phosphorylation, ΔCTD_Reg1, IKKβ.
Where [5] appears, read: Table 14, binding between IKKβ and Regnase-1, read-out: Binding inhibition FL_Reg1, 50% inhibition concentration (IKKβ).
Setting [6] is: Table 14, phosphorylation by IKKβ, read-out: Phosphorylation inhibition ΔCTD_Reg1, 50% inhibition concentration (IKKβ).

SMILES strings stand for the structures. Where two headings read alike, the source gives them in different places. Residues, ends and D or L forms follow the SMILES beside them.

Consider `CC[C@H](C)[C@@H]1NC(=O)[C@H](CCCNC(=N)N)NC(=O)[C@H](Cc2ccc(O)cc2)NC(=O)[C@H](Cc2c[nH]c3ccccc23)NC(=O)[C@H](C)NC(=O)[C@H](CO)NC(=O)[C@H](C)NC(=O)[C@H](Cc2c[nH]cn2)NC(=O)[C@H](CCCCN)NC(=O)[C@@H](C)N(C)C(=O)C[C@@H](C(=O)N2CCCC2)NC(=O)[C@H](Cc2c[nH]c3ccccc23)NC1=O` [PP3] (HELM PEPTIDE1{[C[C@H](C(=O)[*:2])N(C)[*:1]].K.H.A.S.A.W.Y.R.I.W.D.[C1CCN([*:1])C1]}$PEPTIDE1,PEPTIDE1,1:R1-12:R3$$$V2.0), for which the IC50 in assay [1] (setting [3]) and in assay [2] (setting [4]) was 8.3 µM throughout.

Turning to `CC[C@H](C)[C@@H]1NC(=O)[C@H](Cc2c[nH]c3ccccc23)NC(=O)[C@H](CCCNC(=N)N)NC(=O)[C@H](Cc2ccccc2)NC(=O)[C@H](CCC(N)=O)NC(=O)[C@H](C)NC(=O)[C@H](Cc2ccccc2)NC(=O)[C@H](CCCCN)NC(=O)[C@H](C)N(C)C(=O)C[C@@H](C(=O)N2CCCC2)NC(=O)[C@@H]2CCCN2C(=O)[C@H](Cc2ccc(O)cc2)NC1=O` [PP11] (HELM PEPTIDE1{[meA].K.F.A.Q.F.R.W.I.Y.P.D.[C1CCN([*:1])C1]}$PEPTIDE1,PEPTIDE1,1:R1-12:R3$$$V2.0), the IC50 in assay [1] (setting [5]) and in assay [2] (setting [6]) was > 62.1 µM throughout.

For `CC(C)[C@@H]1NC(=O)[C@H](CCCCN)NC(=O)[C@H](Cc2ccc(O)cc2)NC(=O)[C@H](Cc2c[nH]c3ccccc23)NC(=O)[C@H](CO)NC(=O)[C@H]([C@@H](C)O)NC(=O)[C@H](C)N(C)C(=O)C[C@@H](C(=O)N2CCCC2)NC(=O)[C@H](CCC(N)=O)NC(=O)CNC(=O)[C@H](Cc2c[nH]c3ccccc23)NC(=O)[C@H](CC(N)=O)NC1=O` [PP1] (HELM PEPTIDE1{[meA].T.S.W.Y.K.V.N.W.G.Q.D.[C1CCN([*:1])C1]}$PEPTIDE1,PEPTIDE1,1:R1-12:R3$$$V2.0), the IC50 in assay [1] (setting [3]), in assay [1] (setting [5]), in assay [2] (setting [4]) and in assay [2] (setting [6]) was > 62.1 µM in each case.

For `CC[C@H](C)[C@@H]1NC(=O)[C@H](CC(N)=O)NC(=O)[C@H]([C@@H](C)CC)NC(=O)[C@H](Cc2ccc(O)cc2)NC(=O)[C@H](Cc2c[nH]c3ccccc23)NC(=O)[C@H](CO)NC(=O)[C@H](CC(N)=O)NC(=O)[C@H](C)N(C)C(=O)C[C@@H](C(=O)N2CCCC2)NC(=O)[C@H](Cc2c[nH]cn2)NC(=O)CNC(=O)[C@H](Cc2c[nH]c3ccccc23)NC1=O` [PP15] (HELM PEPTIDE1{[meA].N.S.W.Y.I.N.I.W.G.H.D.[C1CCN([*:1])C1]}$PEPTIDE1,PEPTIDE1,1:R1-12:R3$$$V2.0), the IC50 turned out to be 33.7 µM in assay [1] (setting [5]) and 31 µM in assay [2] (setting [6]).

Turning to `CC[C@H](C)[C@@H]1NC(=O)[C@H](Cc2ccc(O)cc2)NC(=O)[C@H](C)N(C)C(=O)C[C@@H](C(=O)N2CCCC2)NC(=O)[C@H](CC(C)C)NC(=O)[C@H](CC(=O)O)NC(=O)CNC(=O)[C@H](Cc2ccccc2)NC(=O)[C@H](Cc2ccccc2)NC(=O)[C@H](CC(=O)O)NC(=O)[C@H](Cc2c[nH]c3ccccc23)NC1=O` [PP4] (HELM PEPTIDE1{[meA].Y.I.W.D.F.F.G.D.L.D.[C1CCN([*:1])C1]}$PEPTIDE1,PEPTIDE1,1:R1-11:R3$$$V2.0), the IC50 in assay [1] (setting [3]) came out at 47.7 µM; in assay [2] (setting [4]), 8.3 µM.

On to `CC[C@H](C)[C@@H]1NC(=O)[C@H](CCCCN)NC(=O)[C@H](Cc2ccccc2)NC(=O)[C@H](Cc2c[nH]c3ccccc23)NC(=O)[C@H](CO)NC(=O)[C@H](CO)NC(=O)[C@H](CC(N)=O)NC(=O)[C@@H]2CCCN2C(=O)[C@@H](C)N(C)C(=O)C[C@@H](C(=O)N2CCCC2)NC(=O)[C@H](Cc2c[nH]c3ccccc23)NC1=O` [PP6] (HELM PEPTIDE1{[C[C@H](C(=O)[*:2])N(C)[*:1]].P.N.S.S.W.F.K.I.W.D.[C1CCN([*:1])C1]}$PEPTIDE1,PEPTIDE1,1:R1-11:R3$$$V2.0), for which the IC50 in assay [1] (setting [3]) came out at 42.1 µM; in assay [2] (setting [4]), 20.3 µM.

For `CC[C@H](C)[C@@H]1NC(=O)[C@H](CC(N)=O)NC(=O)[C@H](Cc2ccc(O)cc2)NC(=O)[C@H](Cc2c[nH]c3ccccc23)NC(=O)[C@H](C)NC(=O)[C@H](CC(N)=O)NC(=O)[C@H](CO)NC(=O)[C@H](Cc2c[nH]cn2)NC(=O)[C@H](C)N(C)C(=O)C[C@@H](C(=O)N2CCCC2)NC(=O)[C@H](Cc2c[nH]c3ccccc23)NC1=O` [PP5] (HELM PEPTIDE1{[meA].H.S.N.A.W.Y.N.I.W.D.[C1CCN([*:1])C1]}$PEPTIDE1,PEPTIDE1,1:R1-11:R3$$$V2.0), the IC50 was 24 µM in assay [1] (setting [3]) and 20.4 µM in assay [2] (setting [4]).

Take `CC[C@H](C)[C@@H]1NC(=O)[C@H](CC(=O)O)NC(=O)[C@H](C)N(C)C(=O)C[C@@H](C(=O)N2CCCC2)NC(=O)[C@H](Cc2c[nH]c3ccccc23)NC(=O)[C@H](CC(=O)O)NC(=O)[C@H](Cc2c[nH]c3ccccc23)NC(=O)[C@H](Cc2ccc(O)cc2)NC(=O)[C@H](CC(=O)O)NC(=O)[C@H](Cc2ccccc2)NC(=O)[C@H](Cc2c[nH]c3ccccc23)NC1=O` [PP17] (HELM PEPTIDE1{[meA].D.I.W.F.D.Y.W.D.W.D.[C1CCN([*:1])C1]}$PEPTIDE1,PEPTIDE1,1:R1-11:R3$$$V2.0): the IC50 in assay [1] (setting [5]) was < 0.06 µM; in assay [2] (setting [6]) it was 0.3 µM.

On to `CC[C@H](C)[C@@H]1NC(=O)[C@H](CCCCN)NC(=O)[C@H](Cc2ccc(O)cc2)NC(=O)[C@H](Cc2c[nH]c3ccccc23)NC(=O)[C@H](CO)NC(=O)[C@H](CO)NC(=O)[C@H]([C@@H](C)O)NC(=O)[C@@H]2CCCN2C(=O)[C@@H](C)N(C)C(=O)C[C@@H](C(=O)N2CCCC2)NC(=O)[C@H](Cc2c[nH]c3ccccc23)NC1=O` [PP23] (HELM PEPTIDE1{[C[C@H](C(=O)[*:2])N(C)[*:1]].P.T.S.S.W.Y.K.I.W.D.[C1CCN([*:1])C1]}$PEPTIDE1,PEPTIDE1,1:R1-11:R3$$$V2.0), for which the values for the IC50 in assay [1] (setting [5]) and in assay [2] (setting [6]) were 41.3 µM and > 62.1 µM, respectively.

(Values after patent US20250018014A1, “METHOD FOR TREATING AND/OR PREVENTING REGNASE-1-RELATED DISEASE” (OSAKA UNIVERSITY, priority 2018, published 2025).)
